Data from US10245275B2 (ViiV HEALTHCARE UK (NO.4) LIMITED, priority 2014, dated 2019).
Like-named read-outs stand apart in the source and are kept apart here.

What was measured:
[1] = system: HIV-1 NL4-3 gag A364V virus; assay: microbe, parasite or virus in culture; type: cell-based
In short: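 Recombinant NL4-3 reporter virus with Renilla luciferase replacing part of nef, made by transfection of 293T cells. MT-2 cells infected for 4-5 days with serial inhibitor dilutions; antiviral activity quantified by luciferase activity.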

[2] = system: WT (wild-type HIV virus; recombinant NL4-3 virus); assay: microbe, parasite or virus in culture; type: cell-based, HIV-1
In short: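 MT-2 cells infected 4-5 days with NL4-3 carrying Renilla luciferase in place of part of nef (Gag P373S), virus made by 293T transfection, with serial inhibitor dilutions. Antiviral activity read as luciferase activity by a modified dual-luciferase read-out.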

[3] = Human immunodeficiency virus 1, NL43, MT2, read-out: A364V (EC50, uM), Table 1 regular screen, class symbol
[4] = Human immunodeficiency virus 1, NL43, MT2, read-out: WT (EC50, uM), Table 1 regular screen, class symbol
[5] = Human immunodeficiency virus 1, NL43, MT2, read-out: A364V (EC50, uM), Table 1 regular screen, MT-2 cells, luciferase readout
[6] = Human immunodeficiency virus 1, NL43, MT2, read-out: WT (EC50, uM), Table 1 regular screen, MT-2 cells, luciferase readout

C=C(C)[C@@H]1CC[C@]2(NCCN3CCS(=O)(=O)CC(C)C3)CC[C@]3(C)[C@H](CC[C@@H]4[C@@]5(C)CC=C(C6=CC[C@](CF)(C(=O)O)CC6)C(C)(C)[C@@H]5CC[C@]43C)[C@@H]12 (stereo partly drawn) [Example 27, (1S)-1-(fluoromethyl)-4-((1R,3aS,5aR,5bR,7aR,11aS,11bR,13aR,13bR)-5a,5b,8,8,11a-pentamethyl-3a-((2-(6-methyl-1,1-dioxido-1,4-thiazepan-4-yl)ethyl)amino)-1-(prop-1-en-2-yl)-2,3,3a,4,5,5a,5b,6,7,7a,8,11,11a,11b,12,13,13a,13b-octadecahydro-1H-cyclopenta[a]chrysen-9-yl)cyclohex-3-enecarboxylic acid]
EC50 [1, 3]: > 0.05 µM | EC50 [2, 4]: < 0.05 µM

C=C(C)[C@@H]1CC[C@]2(NCCC3(O)CCOCC3)CC[C@]3(C)[C@H](CC[C@@H]4[C@@]5(C)CC=C(C6=CC[C@](CF)(C(=O)O)CC6)C(C)(C)[C@@H]5CC[C@]43C)[C@@H]12 [Example 2-12, (S)-1-(fluoromethyl)-4-((1R,3aS,5aR,5bR,7aR,11aS,11bR,13aR,13bR)-3a-((2-(4-hydroxytetrahydro-2H-pyran-4-yl)ethyl)amino)-5a,5b, 8,8,11a-pentamethyl-1-(prop-1-en-2-yl)-2,3,3a,4,5,5a,5b,6,7,7a,8,11,11a,11b,12,13,13a,13b-octadecahydro-1H-cyclopenta[a]chrysen-9-yl)cyclohex-3-enecarboxylic acid]
EC50 [1, 5]: 0.348 µM | EC50 [2, 6]: 0.00201 µM

C=C(C)[C@@H]1CC[C@]2(CN(CCCN3CCS(=O)(=O)CC3)C(C)=O)CC[C@]3(C)[C@H](CC[C@@H]4[C@@]5(C)CC=C(C6=CC[C@@](CF)(C(=O)O)CC6)C(C)(C)[C@@H]5CC[C@]43C)[C@@H]12 [Example 12, (R)-4-((1R,3aS,5aR,5bR,7aR,11aS,11bR,13aR,13bR)-3a-((N-(3-(1,1-dioxidothiomorpholino)propyl)acetamido)methyl)-5a,5b,8,8,11a-pentamethyl-1-(prop-1-en-2-yl)-2,3,3a,4,5,5a,5b,6,7,7a,8,11,11a,11b,12,13,13a,13b-octadecahydro-1H-cyclopenta[a]chrysen-9-yl)-1-(fluoromethyl)cyclohex-3-enecarboxylic acid]
EC50 [1, 3]: > 0.05 µM | EC50 [2, 4]: < 0.05 µM

C=C(C)[C@@H]1CC[C@]2(NCCC3(O)CCS(=O)(=O)CC3)CC[C@]3(C)[C@H](CC[C@@H]4[C@@]5(C)CC=C(C6=CC[C@](CF)(C(=O)O)CC6)C(C)(C)[C@@H]5CC[C@]43C)[C@@H]12 [Example 2-13, (S)-1-(fluoromethyl)-4-((1R,3aS,5aR,5bR,7aR,11aS,11bR,13aR,13bR)-3a-((2-(4-hydroxy-1,1-dioxidotetrahydro-2H-thiopyran-4-yl)ethyl)amino)-5a,5b,8,8,11a-pentamethyl-1-(prop-1-en-2-yl)-2,3,3a,4,5,5a,5b,6,7,7a,8,11,11a,11b,12,13,13a,13b-octadecahydro-1H-cyclopenta[a]chrysen-9-yl)cyclohex-3-enecarboxylic acid]
EC50 [1, 3]: > 0.05 µM | EC50 [2, 4]: < 0.05 µM

C=C(C)[C@@H]1CC[C@]2(NCC[C@]3(O)CC[C@@H](S(C)(=O)=O)CC3)CC[C@]3(C)[C@H](CC[C@@H]4[C@@]5(C)CC=C(C6=CC[C@](CF)(C(=O)O)CC6)C(C)(C)[C@@H]5CC[C@]43C)[C@@H]12 [Example 2-19, (S)-1-(fluoromethyl)-4-((1R,3aS,5aR,5bR,7aR,11aS,11bR,13aR,13bR)-3a-((2-((cis)-1-hydroxy-4-(methylsulfonyl)cyclohexyl)ethyl)amino)-5a,5b,8,8,11a-pentamethyl-1-(prop-1-en-2-yl)-2,3,3a,4,5,5a,5b,6,7,7a,8,11,11a,11 b,12,13,13a,13b-octadecahydro-1H-cyclopenta[a]chrysen-9-yl)cyclohex-3-enecarboxylic acid]
EC50 [1, 5]: 0.0222 µM | EC50 [2, 6]: 0.00135 µM

C=C(C)[C@@H]1CC[C@]2(NCCC3(O)COC3)CC[C@]3(C)[C@H](CC[C@@H]4[C@@]5(C)CC=C(C6=CC[C@](CF)(C(=O)O)CC6)C(C)(C)[C@@H]5CC[C@]43C)[C@@H]12 [Example 2-10, (S)-1-(fluoromethyl)-4-((1R,3aS,5aR,5bR,7aR,11aS,11bR,13aR,13bR)-3a-((2-(3-hydroxyoxetan-3-yl)ethyl)amino)-5a,5b, 8,8,11a-pentamethyl-1-(prop-1-en-2-yl)-2,3,3a,4,5,5a,5b,6,7,7a,8,11,11a,11b,12,13,13a,13b-octadecahydro-1H-cyclopenta[a]chrysen-9-yl)cyclohex-3-enecarboxylic acid]
EC50 [1, 3]: > 0.05 µM | EC50 [2, 4]: < 0.05 µM

C=C(C)[C@@H]1CC[C@]2(NCCN3CCOCC3)CC[C@]3(C)[C@H](CC[C@@H]4[C@@]5(C)CC=C(C6=CC[C@](CF)(C(=O)O)CC6)C(C)(C)[C@@H]5CC[C@]43C)[C@@H]12 [Example 3, (S)-1-(fluoromethyl)-4-((1R,3aS,5aR,5bR,7aR,11aS,11bR,13aR,13bR)-5a,5b,8,8,11a-pentamethyl-3a-((2-morpholinoethyl)amino)-1-(prop-1-en-2-yl)-2,3,3a,4,5,5a,5b,6,7,7a,8,11,11a,11b,12,13,13a,13b-octadecahydro-1H-cyclopenta[a]chrysen-9-yl)cyclohex-3-enecarboxylic acid]
EC50 [1, 5]: 0.679 µM | EC50 [2, 6]: 0.00453 µM

C=C(C)[C@@H]1CC[C@]2(NCCN3CCC(C(=O)OCC)(C(=O)OCC)CC3)CC[C@]3(C)[C@H](CC[C@@H]4[C@@]5(C)CC=C(C6=CC[C@@](CF)(C(=O)O)CC6)C(C)(C)[C@@H]5CC[C@]43C)[C@@H]12 [Example 13, (R)-4-((1R,3aS,5aR,5bR,7aR,11aS,11bR,13aR,13bR)-3a-((2-(4,4-bis(ethoxycarbonyl)piperidin-1-yl)ethyl)amino)-5a,5b, 8,8,11a-pentamethyl-1-(prop-1-en-2-yl)-2,3,3a,4,5,5a,5b,6,7,7a,8,11,11a,11b,12,13,13a,13b-octadecahydro-1H-cyclopenta[a]chrysen-9-yl)-1-(fluoromethyl)cyclohex-3-enecarboxylic acid]
EC50 [1, 5]: 0.196 µM | EC50 [2, 6]: 0.0188 µM

C=C(C)[C@@H]1CC[C@]2(NCCN3CCC(C(=O)O)(C(=O)OCC)CC3)CC[C@]3(C)[C@H](CC[C@@H]4[C@@]5(C)CC=C(C6=CC[C@@](CF)(C(=O)O)CC6)C(C)(C)[C@@H]5CC[C@]43C)[C@@H]12 [Example 17]
EC50 [1, 5]: 3 µM | EC50 [2, 6]: 0.0194 µM

C=C(C)[C@@H]1CC[C@]2(NCCC(C)C)CC[C@]3(C)[C@H](CC[C@@H]4[C@@]5(C)CC=C(C6=CC[C@](CF)(C(=O)O)CC6)C(C)(C)[C@@H]5CC[C@]43C)[C@@H]12 [Example 2-7, (S)-1-(fluoromethyl)-4-((1R,3aS,5aR,5bR,7aR,11aS,11bR,13aR,13bR)-3a-(isopentylamino)-5a,5b,8,8,11a-pentamethyl-1-(prop-1-en-2-yl)-2,3,3a,4,5,5a,5b,6,7,7a,8,11,11a,11b,12,13,13a,13b-octadecahydro-1H-cyclopenta[a]chrysen-9-yl)cyclohex-3-enecarboxylic acid]
EC50 [1, 5]: 3 µM | EC50 [2, 6]: 0.116 µM
